Assay results: patent US20240100006A1, “COMPOSITIONS AND METHODS USING AT LEAST ONE GLYCINE OR DERIVATIVE THEREOF AND AT LEAST ONE LARGE NEUTRAL AMINO ACID AND/OR CATIONIC AMINO ACID OR PRECURSOR THEREOF” (SOCIETE DES PRODUITS NESTLE S.A., priority 2020, published 2024)
Entries after “also recorded” stand apart in the source; their conditions may differ.

Tested on: isolated mitochondria from skeletal muscle of zebrafish
Assay: Acute oxidative stress and mitochondrial high-resolution respirometry
Type: in vivo
Method: Following the stress, fish were divided into controls and treatment groups. […] Fish exposed to the glycine and glucose treatment were incubated in water containing the compound of interest for 2 h at 28° C. at the following doses: 50, 200, 450 μM (Sigma-Aldrich) for glycine; 500 μM and 5 mM (Sigma-Aldrich) for glucose; 450 μM for glycine, arginine and methionine (Sigma-Aldrich). […] After BCA quantification of protein concentration, 150 μg of crude extract were used for high-resolution respirometry quantification. […] Up to three 02k instruments ([…]) were used in parallel. Experiments were performed at 28° C. in modified MiR05 (110 mM sucrose, 0.5 mM EGTA, 3 mM MgCl2, 20 mM taurine, 10 mM KH2PO4, 20 mM HEPES and 0.1% BSA essentially fatty acid free). Respiration of isolated mitochondria was determined using substrate-uncoupler-inhibitor titration (SUIT) protocols (Pesta and […], Methods Mol Biol. 2012; 810:25-58) with modifications. […] CI respiration was calculated as the difference between total respiration (CI+CII) and the addition of CI inhibitor rotenone (0.5 μM); CII respiration was calculated as the difference between inhibited CI respiration and the addition of CII inhibitor malonic acid (5 mM). Total respiration (CI+CII, Tot resp) was assessed as the difference of the respiration in presence of all substrates and the total inhibition of CI and CII.

Row | SMILES | mitochondrial respiration (O2 consumption; Complex I dependent respiration) after acute oxidative stress (adult AB zebrafish, 3 μM menadione 2 h at 28° C., then compound in water 2 h, glycine 50, 200, 450 μM, glucose 500 μM and 5 mM, FIG. 3, n=3 per condition) | Complex I dependent respiration (acute oxidative stress inducer, 3 μM in water for 2 h at 28° C., FIG. 3)
1 | NCC(=O)O [glycine] | restores respiratory levels; also recorded: able to restore mitochondrial respiration | 
2 | CC1=CC(=O)c2ccccc2C1=O [menadione, Menadione, reference compound] |  | decreasing Complex I dependent respiration
